Counter-ions that a name gives are not always drawn.
Legend:
Δ49N-hChoKα = target: T1, Δ49N-hChoKα (Homo sapiens, UniProt P35790); test: Biochemical kinase inhibition assay (Kinase-Glo Luminescent Kinase Assay) on Δ49N-hChoKα; details: ATP 5 μM, choline 5 μM, 60 minutes at rt; read-out: IC50 ChoKα
T1 construct: cDNA fragment 362-1534, corresponding to aminoacids 50-457; GST (N, cleaved yes); Prescission Protease recognition site (N, cleaved yes); made in house; host or cells: Escherichia coli BL21pLysS (DE3)
Description: (§1) The biochemical activity of compounds against Δ49N-ChoKα and ChoKβ FL were determined using the Kinase-Glo™ Luminescent Kinase Assay (Promega cat. V6711).
(§2) Compounds were 3-fold serially diluted from 10 to 0.0005 μM, then incubated for 60 minutes at rt in the presence of ATP 5 μM, choline (5 μM for ChoKα and 20 μM for ChoKβ) and enzyme in a final volume of 19 μL of kinase buffer (50 mM Hepes pH 7.5, 10 mM MgCl2, 1 mM DTT, 3 μM Na3VO4 and 0.2 mg/mL BSA). The final concentration of DMSO was 1%.
(§3) At the end of the incubation, an amount of 19 μL of KinaseGlo Reagent was added to each well to stop the reaction and after 30 minutes the luminescence signal was measured using ViewLux reader (Perkin Elmer).
(§4) The data per each molecule are analyzed by an internally customized version of the SW package “Assay Explorer” which provides sigmoidal fittings of the ten-dilution curves for IC50 determination using a 4 parameter logistic equation: y=bottom+(top−bottom)/(1+10^((log IC50−x)*slope)) where x is the logarithm of the inhibitor concentration, y is the response; y starts at bottom and goes to top with a sigmoid shape.

hChoKβ FL = target: T2, hChoKβ FL (Homo sapiens, UniProt Q9Y259); test: Biochemical kinase inhibition assay (Kinase-Glo Luminescent Kinase Assay) on hChoKβ FL; details: ATP 5 μM, choline 20 μM, 60 minutes at rt; read-out: IC50 ChoKβ
T2 construct: hChoKβ full length (FL), corresponding to aminoacids 2-395; GST (N, cleaved yes); Prescission Protease recognition site (N, cleaved yes); made in house; host or cells: Escherichia coli BL21pLysS (DE3)
T2 sequence (Q9Y259 2-395): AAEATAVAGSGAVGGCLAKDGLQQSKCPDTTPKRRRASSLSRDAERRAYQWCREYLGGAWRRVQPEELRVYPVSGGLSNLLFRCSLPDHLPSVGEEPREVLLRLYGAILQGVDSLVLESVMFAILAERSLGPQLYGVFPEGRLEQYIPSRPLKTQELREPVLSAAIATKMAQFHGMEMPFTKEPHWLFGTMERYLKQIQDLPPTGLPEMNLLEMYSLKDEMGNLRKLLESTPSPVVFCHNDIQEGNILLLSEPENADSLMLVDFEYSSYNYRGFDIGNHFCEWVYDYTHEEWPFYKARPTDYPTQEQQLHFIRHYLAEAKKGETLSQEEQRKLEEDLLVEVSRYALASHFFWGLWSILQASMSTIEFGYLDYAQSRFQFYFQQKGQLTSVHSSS
Description: as §1, §2, §3, §4

T1 sequence (P35790 50-457, stated change not applied): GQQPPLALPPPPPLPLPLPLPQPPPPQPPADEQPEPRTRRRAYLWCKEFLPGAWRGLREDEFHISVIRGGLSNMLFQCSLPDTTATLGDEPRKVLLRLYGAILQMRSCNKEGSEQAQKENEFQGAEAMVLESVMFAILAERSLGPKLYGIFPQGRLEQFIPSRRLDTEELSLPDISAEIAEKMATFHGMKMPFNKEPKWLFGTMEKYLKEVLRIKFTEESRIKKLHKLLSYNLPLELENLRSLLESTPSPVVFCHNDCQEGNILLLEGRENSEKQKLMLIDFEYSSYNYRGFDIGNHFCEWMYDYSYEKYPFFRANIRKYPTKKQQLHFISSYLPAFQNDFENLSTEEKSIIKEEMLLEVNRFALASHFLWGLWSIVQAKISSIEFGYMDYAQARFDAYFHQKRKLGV

| IC50 (Δ49N-hChoKα) [nM] | IC50 (hChoKβ FL) [µM] | SMILES |
| --- | --- | --- |
| 11 | > 10 | Cc1csc(NC(=O)[C@H]2CC[C@@H](n3cnc4c(N)nc(-c5cccc(C(=O)Nc6ccc(CN7CCC(N(C)C)CC7)cc6)c5)nc43)CC2)n1 [cpd 85, 3-(6-amino-9-{cis-4-[(4-methyl-1,3-thiazol-2-yl)carbamoyl]cyclohexyl}-9H-purin-2-yl)-N-(4-{[4-(dimethylamino)piperidin-1-yl]methyl}phenyl)benzamide bis-trifluoroacetate] |
| 52 | > 10 | Nc1nc(Cl)nc2c1ncn2[C@H]1CC[C@@H](C(=O)Nc2nc(CC(=O)N3CCC(N4CCCCC4)CC3)cs2)CC1 [cpd 86, cis-4-(6-amino-2-chloro-9H-purin-9-yl)-N-{4-[2-(1,4′-bipiperidin-1′-yl)-2-oxoethyl]-1,3-thiazol-2-yl}cyclohexanecarboxamide] |
| 974 | > 10 | COc1cccc(NC(=O)[C@H]2CC[C@@H](n3cnc4c(N)nc(C5CC5)nc43)CC2)c1 [cpd 87, cis-4-(6-amino-2-cyclopropyl-9H-purin-9-yl)-N-(3-methoxyphenyl)cyclohexanecarboxamide] |
| 524 | > 10 | COC(=O)[C@H]1CC[C@@H](n2cnc3c(N)nc(Cl)nc32)CC1 [cpd 88, methyl cis-4-(6-amino-2-chloro-9H-purin-9-yl)cyclohexanecarboxylate] |
| 64 | 4.16 | CS(=O)(=O)c1ccc2nc(NC(=O)[C@H]3CC[C@@H](n4cnc5c(N)nc(Cl)nc54)CC3)sc2c1 [cpd 89, cis-4-(6-amino-2-chloro-9H-purin-9-yl)-N-[6-(methylsulfonyl)-1,3-benzothiazol-2-yl]cyclohexanecarboxamide] |
| 28 | > 10 | Nc1nc(Cl)nc2c1ncn2[C@H]1CC[C@@H](C(=O)Nc2nc3ccc(Cl)cc3s2)CC1 [cpd 90, cis-4-(6-amino-2-chloro-9H-purin-9-yl)-N-(6-chloro-1,3-benzothiazol-2-yl)cyclohexanecarboxamide] |
| 48 | 6.08 | Cc1cc2nc(NC(=O)[C@H]3CC[C@@H](n4cnc5c(N)nc(Cl)nc54)CC3)sc2cc1C [cpd 93, cis-4-(6-amino-2-chloro-9H-purin-9-yl)-N-(5,6-dimethyl-1,3-benzothiazol-2-yl)cyclohexanecarboxamide] |
| 178 | 5.62 | Nc1nc(Cl)nc2c1ncn2[C@H]1CC[C@@H](C(=O)Nc2nc3cc(Cl)ccc3o2)CC1 [cpd 94, cis-4-(6-amino-2-chloro-9H-purin-9-yl)-N-(5-chloro-1,3-benzoxazol-2-yl)cyclohexanecarboxamide] |
| 268 | 7.12 | Cn1c(NC(=O)[C@H]2CC[C@@H](n3cnc4c(N)nc(Cl)nc43)CC2)nc2ccccc21 [cpd 95, cis-4-(6-amino-2-chloro-9H-purin-9-yl)-N-(1-methyl-1H-benzimidazol-2-yl)cyclohexanecarboxamide] |
| 274 | > 10 | Cc1csc(NC(=O)[C@H]2CC[C@@H](n3cnc4c(N)nc(-c5cccc(C(N)=O)c5)nc43)CC2)n1 [cpd 96, 3-(6-amino-9-{cis-4-[(4-methyl-1,3-thiazol-2-yl)carbamoyl]cyclohexyl}-9H-purin-2-yl)benzamide] |
| 478 | > 10 | Cc1csc(NC(=O)[C@H]2CC[C@H](n3cnc4c(N)nc(-c5cccc(C(N)=O)c5)nc43)CC2)n1 [cpd 97, 3-(6-amino-9-{trans-4-[(4-methyl-1,3-thiazol-2-yl)carbamoyl]cyclohexyl}-9H-purin-2-yl)benzamide] |
| 248 | > 10 | Cc1csc(NC(=O)[C@H]2CC[C@@H](n3cnc4c(N)nc(-c5cccc(OCc6ccccc6)c5)nc43)CC2)n1 [cpd 100, cis-4-{6-amino-2-[3-(benzyloxy)phenyl]-9H-purin-9-yl}-N-(4-methyl-1,3-thiazol-2-yl)cyclohexanecarboxamide] |
| 88 | > 10 | Cc1csc(NC(=O)[C@H]2CC[C@@H](n3cnc4c(N)nc(C#N)nc43)CC2)n1 [cpd 102, cis-4-(6-amino-2-cyano-9H-purin-9-yl)-N-(4-methyl-1,3-thiazol-2-yl)cyclohexanecarboxamide] |
| 176 | > 10 | Cc1csc(NC(=O)[C@H]2CC[C@@H](n3cnc4c(N)nc(-c5cccc(O)c5)nc43)CC2)n1 [cpd 103, cis-4-[6-amino-2-(3-hydroxyphenyl)-9H-purin-9-yl]-N-(4-methyl-1,3-thiazol-2-yl)cyclohexanecarboxamide] |
| 120 | > 10 | Cc1csc(NC(=O)[C@H]2CC[C@@H](n3cnc4c(N)nc(-c5cc[nH]n5)nc43)CC2)n1 [cpd 112, cis-4-[6-amino-2-(1H-pyrazol-3-yl)-9H-purin-9-yl]-N-(4-methyl-1,3-thiazol-2-yl)cyclohexanecarboxamide] |
| 613 | > 10 | Cc1csc(NC(=O)[C@H]2CC[C@H](n3cnc4c(N)nc(-c5cc[nH]n5)nc43)CC2)n1 [cpd 113, trans-4-[6-amino-2-(1H-pyrazol-3-yl)-9H-purin-9-yl]-N-(4-methyl-1,3-thiazol-2-yl)cyclohexanecarboxamide] |
| 43 | > 10 | COc1cccc2sc(NC(=O)[C@H]3CC[C@@H](n4cnc5c(N)nc(I)nc54)CC3)nc12 [cpd 116, cis-4-(6-amino-2-iodo-9H-purin-9-yl)-N-(4-methoxy-1,3-benzothiazol-2-yl)cyclohexanecarboxamide] |
| 21 | 7.7 | C#Cc1nc(N)c2ncn([C@H]3CC[C@@H](C(=O)Nc4nc5c(OC)cccc5s4)CC3)c2n1 [cpd 119, cis-4-(6-amino-2-ethynyl-9H-purin-9-yl)-N-(4-methoxy-1,3-benzothiazol-2-yl)cyclohexanecarboxamide] |
| 40 | > 10 | Nc1nc(Cl)nc2c1ncn2[C@H]1CC[C@@H](C(=O)Nc2nc(CN3CCC(N)CC3)cs2)CC1 [cpd 120, cis-4-(6-amino-2-chloro-9H-purin-9-yl)-N-{4-[(4-aminopiperidin-1-yl)methyl]-1,3-thiazol-2-yl}cyclohexanecarboxamide] |
| 31 | > 10 | COc1cccc2sc(NC(=O)[C@H]3CC[C@@H](n4cnc5c(N)nc(F)nc54)CC3)nc12 [cpd 126, cis-4-(6-amino-2-fluoro-9H-purin-9-yl)-N-(4-methoxy-1,3-benzothiazol-2-yl)cyclohexanecarboxamide] |
| 45 | > 10 | Nc1nc(F)nc2c1ncn2[C@H]1CC[C@@H](C(=O)Nc2nc3c(O)cccc3s2)CC1 [cpd 127, cis-4-(6-amino-2-fluoro-9H-purin-9-yl)-N-(4-hydroxy-1,3-benzothiazol-2-yl)cyclohexanecarboxamide] |
| 38 | > 10 | Nc1nc(F)nc2c1ncn2[C@H]1CC[C@@H](C(=O)Nc2nc3ccc(F)cc3s2)CC1 [cpd 128, cis-4-(6-amino-2-fluoro-9H-purin-9-yl)-N-(6-fluoro-1,3-benzothiazol-2-yl)cyclohexanecarboxamide] |
| 416 | > 10 | Cc1csc(NC(=O)[C@H]2CC[C@@H](n3cnc4c(N)nc(C(F)(F)F)nc43)CC2)n1 [cpd 129, cis-4-[6-amino-2-(trifluoromethyl)-9H-purin-9-yl]-N-(4-methyl-1,3-thiazol-2-yl)cyclohexanecarboxamide] |
| 257 | > 10 | Nc1nc(C(F)(F)F)nc2c1ncn2[C@H]1CC[C@@H](C(=O)Nc2nc3ccc(F)cc3s2)CC1 [cpd 132, cis-4-[6-amino-2-(trifluoromethyl)-9H-purin-9-yl]-N-(6-fluoro-1,3-benzothiazol-2-yl)cyclohexanecarboxamide] |
| 97 | > 10 | Nc1nc(Cl)nc2c1ncn2[C@H]1CC[C@@H](C(=O)Nc2nc3ccncc3s2)CC1 [cpd 138, cis-4-(6-amino-2-chloro-9H-purin-9-yl)-N-([1,3]thiazolo[5,4-c]pyridin-2-yl)cyclohexanecarboxamide hydrochloride] |
| 514 | > 10 | Nc1nc(Cl)nc2c1ncn2[C@H]1CC[C@@H](NC(=O)c2nc3ccccc3s2)CC1 [cpd 140, N-[cis-4-(6-amino-2-chloro-9H-purin-9-yl)cyclohexyl]-1,3-benzothiazole-2-carboxamide] |
| 341 | > 10 | COc1cccc(C(=O)N[C@H]2CC[C@@H](n3cnc4c(N)nc(Cl)nc43)CC2)c1 [cpd 144, N-[cis-4-(6-amino-2-chloro-9H-purin-9-yl)cyclohexyl]-3-methoxybenzamide] |
| 73 | > 10 | Cc1csc(NC(=O)[C@H]2CC[C@@H](n3cnc4c(N)nc(C(N)=O)nc43)CC2)n1 [cpd 146, 6-amino-9-{cis-4-[(4-methyl-1,3-thiazol-2-yl)carbamoyl]cyclohexyl}-9H-purine-2-carboxamide] |
| 65 | 7.04 | Nc1nc2ccc(OC(=O)[C@H]3CC[C@@H](n4cnc5c(N)nc(Cl)nc54)CC3)cc2s1 [cpd 159, 2-amino-1,3-benzothiazol-6-yl cis-4-(6-amino-2-chloro-9H-purin-9-yl)cyclohexanecarboxylate] |
| 197 | > 10 | Nc1nc2c(OC(=O)[C@H]3CC[C@@H](n4cnc5c(N)nc(F)nc54)CC3)cccc2s1 [cpd 160, 2-amino-1,3-benzothiazol-4-yl cis-4-(6-amino-2-fluoro-9H-purin-9-yl)cyclohexanecarboxylate] |

| SMILES | IC50 (Δ49N-hChoKα) [nM] | IC50 (hChoKβ FL) [µM] |
| --- | --- | --- |
| Cc1csc(NC(=O)[C@H]2CC[C@@H](n3cnc4c(N)nc(C#C[Si](C)(C)C)nc43)CC2)n1 [cpd 98, cis-4-{6-amino-2-[(trimethylsilyl)ethynyl]-9H-purin-9-yl}-N-(4-methyl-1,3-thiazol-2-yl)cyclohexanecarboxamide] | 120 | > 10 |
